This note sets out measurements from US11077115B2, “Rorgamma modulators and uses thereof” (Genfit, priority 2017, dated 2021).

Test [1] addresses T1, human RORγt (Homo sapiens, UniProt P51449).
T1 sequence (P51449 1-497 isoform P51449-2): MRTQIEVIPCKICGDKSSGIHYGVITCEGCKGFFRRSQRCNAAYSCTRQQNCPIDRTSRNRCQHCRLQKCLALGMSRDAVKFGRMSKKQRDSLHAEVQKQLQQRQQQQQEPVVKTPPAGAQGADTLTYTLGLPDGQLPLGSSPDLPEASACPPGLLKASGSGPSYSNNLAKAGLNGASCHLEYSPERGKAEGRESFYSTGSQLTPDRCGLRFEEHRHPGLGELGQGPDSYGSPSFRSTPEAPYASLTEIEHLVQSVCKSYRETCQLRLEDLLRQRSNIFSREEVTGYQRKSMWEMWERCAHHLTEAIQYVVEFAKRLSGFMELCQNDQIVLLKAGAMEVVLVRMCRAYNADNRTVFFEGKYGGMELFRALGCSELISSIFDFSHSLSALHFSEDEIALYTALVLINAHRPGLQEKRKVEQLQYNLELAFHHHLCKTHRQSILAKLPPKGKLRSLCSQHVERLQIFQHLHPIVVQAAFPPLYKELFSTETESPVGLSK
In words: RORE Luciferase/RORγt transactivation assay (IL-17 promoter luciferase reporter in COS-7 cells). The class given is cell-based. Also on record: V5-His (named only through the vector pcDNA3.1D/V5-His-TOPO); expressed in transfected cells; host or cells: COS-7 (monkey kidney). The settings on record: RORγt activity inhibition, luciferase activity in transfected COS-7 cells, 20 h. In a few lines: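 COS-7 cells co-transfected with human RORγt and luciferase reporter driven by 4.3 kb IL-17 promoter with CNS enhancer, seeded in serum-free, phenol red-free DMEM. Compounds added at 0.3% DMSO final; luciferase read by Steady-Glo luminescence. IC50 (μM) and Emax (%) reported.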
(In general: A reporter such as luciferase makes a cellular process visible.)

In test [2] the target is T2, RORγt ligand-binding domain (RORγt-LBD) (Homo sapiens, UniProt P51449).
T2 construct: 20 nM recombinantly expressed RORγ-LBD fused to GST
T2 sequence (P51449 269-508 limits assumed): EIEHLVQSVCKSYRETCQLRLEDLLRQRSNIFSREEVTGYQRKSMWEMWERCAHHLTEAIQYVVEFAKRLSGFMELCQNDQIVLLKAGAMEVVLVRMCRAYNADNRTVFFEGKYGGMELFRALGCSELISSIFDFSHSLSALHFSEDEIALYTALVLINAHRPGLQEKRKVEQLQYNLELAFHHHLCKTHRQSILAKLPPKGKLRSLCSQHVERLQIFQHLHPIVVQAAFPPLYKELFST
Description: Time-resolved FRET (TR-FRET) RORγt coactivator assay (RIP140 peptide displacement). Format: biochemical. The settings on record: ligand-dependent coactivator-RORγt binding. An excerpt: Time-resolved FRET (TR-FRET) RORγt coactivator assay was used to identify RORγ modulator compounds with ligand-dependent coactivator displacement. The assay uses a d2-labeled anti-GST antibody, synthetic N-terminally biotinylated peptide which is derived from nuclear receptor coactivator protein RIP140, and a RORγt ligand-binding domain (RORγt-LBD) that is tagged with glutathione-S-transferase (GST). The influence of compounds on the RORγ-peptide interaction relies on the binding dependent energy transfer from a donor to an acceptor fluorophor attached to the binding partner of interest. […] For reduction of background from compound fluorescence, TR-FRET method makes use of generic fluorophore labels and time resolved detection.
The assays were done in a final volume of 20 μl in a 384 well plate in a CHAPS buffer (2 mM CHAPS; 1 mM DTT, 2 mM EDTA; 0.1% BSA), containing 20 nM recombinantly expressed RORγ-LBD fused to GST, 30 nM N-terminally biotinylated peptide, 1 nM streptavidin-terbium conjugate and 20 nM d2 labeled-anti-GST. Test compounds were diluted using 10 mM stock solution. The range of the final compound concentrations used in this test was from 0.3 nM to 30 μM (logarithmic scale). DMSO content of the samples was kept at 1%. The assay was equilibrated for 2 hours in the dark at room temperature in 384 well plates (Falcon). The signal was detected by an Ultra384 reader (TECAN). […] Compounds that promote coactivator displacement induce a concentration-dependent decrease in time-resolved fluorescent signal. Data were collected and analyzed using GraphPad Prism software (GraphPad Software V5.02, San Diego Calif. USA). IC50 in μM and E max in % were reported for each compound.

Test [3] addresses T1, human RORγt. Description: IL-17 secretion from EL4 murine lymphoma overexpressing human RORγt. Also on record: V5-His (named only through the vector pcDNA3.1D/V5-His-TOPO); expressed in transfected cells. Format: cell-based. To be noted: IL-17 secretion inhibition in human RORγt-transfected EL4 Tcells, PMA/ionomycin stimulation. As to the method:
Murine EL-4 lymphoma cell line overexpressing human RORγt was used in this functional assay to assess compound ability to inhibit IL-17 cytokine secretion.
EL-4 cells are maintained in a standard culture medium RPMI supplemented with 10% fetal calf serum, 1% sodium pyruvate, 1% essential amino acids and 1% antibiotics at 37° C. in a humidified atmosphere of 5% CO2 and 95% air. Culture medium was changed every 2 days. EL4 cells were transfected with a plasmid encoding hRORγt (sequence identical to published sequence NM 001001523). […] Briefly, 1 μg of DNA/1 million cells was served to transfect EL-4 cells. Cell/DNA suspension was transferred into certified cuvette and the electroporation of RORγt plasmid was carried out using appropriate Nucleofector® program.
Cells were seeded in 96 well plates at a density of 150000 cells/well then treated with compounds of this invention at indicated concentrations and incubated for 24 hours at 37° C. in a humidified atmosphere of 5% CO2 and 95% air. EL-4 cells were pretreated with test compounds (RORγ modulators) and stimulated with PMA (10 ng/mL) and ionomycin (1 μM final concentration) in the presence of test compound concentrations for additional 24 h at 37° C. in a humidified atmosphere of 5% CO2 and 95% air. Subsequently, supernatants were collected (after centrifugation at 300 g for 10 minutes) to determine the concentrations of IL-17 by HTRF (CisBio, France) or ELISA (R&D Systems Europe) according to the manufacturer's protocols.

Each structure is given as a SMILES string.

As for `O=C(Cc1ccc(N2CCS(=O)(=O)CC2)cc1)NC(c1ccccc1)c1ccccc1N1CCCCC1` (stereo not drawn) [Cpd. 1, 2-[4-(1,1-dioxo-1-thiomorpholin-4-yl)phenyl]-N-{phenyl[2-(piperidin-1-yl)phenyl]methyl}acetamide], the values for the IC50 (against human RORγt [1]; in test [2]; against human RORγt [3]) were 0.1 to 1 µM, under 1 µM and 0.1 to 1 µM, respectively.

For the compound `Cc1ccc(C(NC(=O)Cc2cc(N3CCS(=O)(=O)CC3)ccc2C)c2ccc(C)o2)c(N2CCCCC2)c1` (stereo not drawn) [Cpd. 5, 2-[5-(1,1-dioxo-1-thiomorpholin-4-yl)-2-methylphenyl]-N-{[4-methyl-2-(piperidin-1-yl)phenyl](5-methylfuran-2-yl)methyl}acetamide], the half-inhibitory concentration (IC50) (against human RORγt [1]; in test [2]; on human RORγt [3]) was 0.1 to 1 µM in each case.

On to `Cc1ccc(C(NC(=O)Cc2ccc(N3CCS(=O)(=O)CC3)cc2)c2ccc(C)o2)c(N2CCCCC2)c1` (stereo not drawn) [Cpd. 6, 2-[4-(1,1-dioxo-1-thiomorpholin-4-yl)phenyl]-N-{[4-methyl-2-(piperidin-1-yl)phenyl](5-methylfuran-2-yl)methyl}acetamide], for which the figures for the IC50 (at human RORγt [1]; in test [2]; against human RORγt [3]) were under 0.1 µM, under 1 µM and under 1 µM, respectively.

Consider `Cc1ccc(C(NC(=O)Cc2ccc(N3CCS(=O)(=O)CC3)cc2)c2ccccc2)c(Br)c1` (stereo not drawn) [Cpd. 9, N-[(2-bromo-4-methylphenyl)(phenyl)methyl]-2-[4-(1,1-dioxo-1-thiomorpholin-4-yl)phenyl]acetamide], for which the IC50 is 0.1 to 1 µM against human RORγt [1], under 1 µM in test [2] and 0.1 to 1 µM against human RORγt [3].

For the compound `Cc1ccc(C(NC(=O)Cc2ccc(N3CCS(=O)(=O)CC3)c(C)c2)c2ccc(C)o2)c(C(F)(F)F)c1` (stereo not drawn) [Cpd. 10, 2-[4-(1,1-dioxo-1-thiomorpholin-4-yl)-3-methylphenyl]-N-{[4-methyl-2-(trifluoromethyl)phenyl](5-methylfuran-2-yl)methyl}acetamide], the half-inhibitory concentration (IC50) (against human RORγt [1]; in test [2]; at human RORγt [3]) was 0.1 to 1 µM each time.

As for `Cc1ccc(C(NC(=O)Cc2ccc(N3CCS(=O)(=O)CC3)c(C)c2)c2ccc(C)o2)c(Br)c1` (stereo not drawn) [Cpd. 11, N-[(2-bromo-4-methylphenyl)(5-methylfuran-2-yl)methyl]-2-[4-(1,1-dioxo-1-thiomorpholin-4-yl)-3-methylphenyl]acetamide], the results for the concentration for half-maximal inhibition (IC50) (on human RORγt [1]; in test [2]; against human RORγt [3]) were 0.1 to 1 µM, under 1 µM and 0.1 to 1 µM, respectively.

With `Cc1ccc(C(NC(=O)Cc2ccc(N3CCS(=O)(=O)CC3)c(C)c2)c2ccc(C)o2)c(N2CCCCC2)c1` (stereo not drawn) [Cpd. 12, 2-[4-(1,1-dioxo-1-thiomorpholin-4-yl)-3-methylphenyl]-N-{[4-methyl-2-(piperidin-1-yl)phenyl](5-methylfuran-2-yl)methyl}acetamide], the IC50 against human RORγt [1] is under 0.1 µM; in test [2], under 1 µM; on human RORγt [3], under 1 µM.

As for `COc1ccc(C(NC(=O)Cc2ccc(N3CCS(=O)(=O)CC3)c(C)c2)c2ccc(C)o2)c(N2CCC(C)CC2)c1` (stereo not drawn) [Cpd. 13, 2-[4-(1,1-dioxo-1-thiomorpholin-4-yl)-3-methylphenyl]-N-{[4-methoxy-2-(4-methylpiperidin-1-yl)phenyl](5-methylfuran-2-yl)methyl}acetamide], the IC50 (on human RORγt [1]; in test [2]; at human RORγt [3]) was 0.1 to 1 µM each time.

Regarding `COc1ccc(C(NC(=O)Cc2ccc(N3CCS(=O)(=O)CC3)c(C)c2)c2ccc(C)o2)c(N(C)C)c1` (stereo not drawn) [Cpd. 15, N-{[2-(dimethylamino)-4-methoxyphenyl](5-methylfuran-2-yl)methyl}-2-[4-(1,1-dioxo-1-thiomorpholin-4-yl)-3-methylphenyl]acetamide], the IC50 was 0.1 to 1 µM against human RORγt [1], under 1 µM in test [2] and under 1 µM against human RORγt [3].

For `COc1ccc(C(NC(=O)Cc2ccc(N3CCS(=O)(=O)CC3)c(C)c2)c2ccc(C)o2)c(N2CC3CC3C2)c1` (stereo not drawn) [Cpd. 16, N-[(2-{3-azabicyclo[3.1.0]hexan-3-yl}-4-methoxyphenyl)(5-methylfuran-2-yl)methyl]-2-[4-(1,1-dioxo-1-thiomorpholin-4-yl)-3-methylphenyl]acetamide], the figures for the IC50 (at human RORγt [1]; in test [2]; against human RORγt [3]) were 0.1 to 1 µM, under 1 µM and under 1 µM, respectively.

`Cc1ccc(C(NC(=O)Cc2ccc(N3CCS(=O)(=O)CC3)cc2C)c2ccc(C)o2)c(N2CCCCC2)c1` (stereo not drawn) [Cpd. 18, 2-[4-(1,1-dioxo-1-thiomorpholin-4-yl)-2-methylphenyl]-N-{[4-methyl-2-(piperidin-1-yl)phenyl](5-methylfuran-2-yl)methyl}acetamide]: the IC50 against human RORγt [1] was under 0.1 µM; in test [2], under 1 µM; against human RORγt [3], under 1 µM.

Take `COc1ccc(C(NC(=O)C2(c3cnc(N4CCS(=O)(=O)CC4)nc3)CC2)c2ccc(C)o2)c(C)c1` (stereo not drawn) [Cpd. 57, 1-[2-(1,1-dioxo-1-thiomorpholin-4-yl)pyrimidin-5-yl]-N-[(4-methoxy-2-methylphenyl)(5-methylfuran-2-yl)methyl]cyclopropane-1-carboxamide]: the figures for the 50% inhibitory concentration (IC50) against human RORγt [1] and on human RORγt [3] were 0.1 to 1 µM and 1 to 10 µM, respectively.

Regarding `Cc1ccc(C(NC(=O)C2(c3cc(N4CCS(=O)(=O)CC4)ccc3C)CC2)c2ccc(C)o2)c(C)c1` (stereo not drawn) [Cpd. 70, N-[(2,4-dimethylphenyl)(5-methylfuran-2-yl)methyl]-1-[5-(1,1-dioxo-1-thiomorpholin-4-yl)-2-methylphenyl]cyclopropane-1-carboxamide], the figures for the IC50 (in test [2]; at human RORγt [3]) were 0.1 to 1 µM and 1 to 10 µM, respectively.

As to `Cc1ccc(C(NC(=O)C2(c3ncc(N4CCS(=O)(=O)CC4)cc3C)CC2)c2ccc(C)o2)c(C)c1` (stereo not drawn) [Cpd. 72, N-[(2,4-dimethylphenyl)(5-methylfuran-2-yl)methyl]-1-[5-(1,1-dioxo-1-thiomorpholin-4-yl)-3-methylpyridin-2-yl]cyclopropane-1-carboxamide], the IC50 is under 0.1 µM on human RORγt [1] and under 1 µM at human RORγt [3].

As usually defined, the IC50 is the concentration at which inhibition is half-maximal.
